The results in this text go back to patent US7351731B2, “Azole derivatives and methods for making the same” (Board of Governors for Higher Education, State of Rhode …, priority 2005, dated 2008).

One experiment has as its system A. niger ATCC 16404. In words: MIC microdilution susceptibility testing, A. niger in SDB. In kind it is cell-based, Aspergillus niger. To be noted: SDB medium, 35-37° C., 24-48 h, average of three experiments; for MIC: Aspergillus niger, ATCC16404. Here is the method: (§1) Microorganisnis. […] Stock cultures were kept on Sabouraud dextrose agar (SDA; Becton-Dickinson and Co., Sparks, Md.). Subcultures were prepared on SDA at 35-37° C. Suspension cultures were prepared by inoculation of single colonies in 7 ml of normal saline solution.
(§2) Test compounds were dissolved in DMSO (0.56 mg/ml) and stored at 0° C. Working dilutions were made in RPMI or SDB medium. […] The final maximum concentration of DMSO in the assays was 5% (v/v).
(§3) Microdilutions for control experiments with C. albicans, A. niger, and C. neoformans were the modified method of National Committee for Clinical Laboratory Standards (NCCLS) method as described by Galgiani and by the more recent NCCLS M27-A microdilution methods as described previously. Galgiani, J. N. Antimicrob. Agents Chemother. […] Reference method for broth dilution antifungal susceptibility testing for yeasts. Approval standard. […] 9; C. arballeira, N. M., et al. Arch. Pharm.-Pharm. […] Dilutions were prepared in 0.1 ml of RPMI or SDB; the inocula were either 10^4 C. albicans or C. neoformans cells or A. niger spores. The tubes were incubated for 24-48 h at 36±1° C., and turbidity was read visually.
A general note: In broth dilution the organism is exposed to a series of concentrations in liquid medium.

The test system of another experiment is C. neoformans ATCC 66031. In words: MIC microdilution susceptibility testing, C. neoformans in SDB. Type of experiment: cell-based, Cryptococcus neoformans. To be noted: SDB medium, 35-37° C., 24-48 h, average of three experiments; for MIC: Cryptococcus neoformans, ATCC66031. Here is the method: as §1, §2, §3
Experiment [1] relates to C. albicans ATCC 14053. In words: MIC microdilution susceptibility testing, C. albicans in RPMI. Type of experiment: cell-based, Candida albicans. To be noted: for MIC: Candida albicans. As for the experimental part: as §1, §2, §3
Experiment [2] concerns C. albicans ATCC 14053. The experiment can be described thus: MIC microdilution susceptibility testing, C. albicans in SDB. Type of experiment: cell-based, Candida albicans. To be noted: 24-48 h, average of three experiments; for MIC: Candida albicans. As for the experimental part: as §1, §2, §3
Setting [3] is: RPMI medium pH 6.9, 35-37° C., 24-48 h, average of three experiments.
[4] abbreviates: ATCC14053, RPMI medium pH 6.9, 35-37° C., 24-48 h, average of three experiments, read-out: MIC C. albicans ATCC 14053, RPMI.
Setting [5] is: ATCC14053, pH 5.6, SDB medium pH 5.6, 35-37° C.

The structures appear in SMILES notation. Values after ≈ are worked out from the molar mass of the structure shown.

In general, MIC refers to the smallest concentration in the dilution series that meets the test's criterion for growth inhibition.

Regarding `CC(Br)C(=O)OC(Cn1cncn1)(Cn1cncn1)c1ccc(F)cc1F` (centres unmarked) [Compound 1c, O-2-Bromopropionylfluconazole], the “MIC A. niger ATCC 16404, SDB” value against A. niger ATCC 16404 was >656 µg/mL. Besides, the “MIC C. neoformans ATCC 66031, SDB” value in the experiment with C. neoformans ATCC 66031 was 656 µg/mL (≈ 1490 µM). For the same compound, the “MIC C. albicans ATCC 14053, RPMI” value with C. albicans ATCC 14053 [1] (setting [3]) was 656 µg/mL (≈ 1490 µM). In addition, the “MIC C. albicans ATCC 14053, SDB” value in the experiment with C. albicans ATCC 14053 [2] (SDB medium pH 5.6, 35-37° C.) stood at 656 µg/mL (≈ 1490 µM).

With `CCCCCCCCCCC(Br)C(=O)OC(Cn1cncn1)(Cn1cncn1)c1ccc(F)cc1F` (centres unmarked) [Compound 1h, O-2-Bromolauroylfluconazole], in the experiment on A. niger ATCC 16404, the “MIC A. niger ATCC 16404, SDB” value was “≧1,466 μg/mL”. Besides, the “MIC C. neoformans ATCC 66031, SDB” value against C. neoformans ATCC 66031 is reported as 1,466 μg/mL. Also, in the experiment with C. albicans ATCC 14053 [1] (setting [3]), the “MIC C. albicans ATCC 14053, RPMI” value was 1,466 μg/mL. In addition, the “MIC C. albicans ATCC 14053, SDB” value in the experiment with C. albicans ATCC 14053 [2] (SDB medium pH 5.6, 35-37° C.) is recorded as 1,466 μg/mL.

In the case of `Cc1ccc(S(=O)(=O)C(Cn2cncn2)(Cn2cncn2)c2ccc(F)cc2F)cc1` [Tosyl], the MIC against A. niger ATCC 16404 is > 731 µg/mL; in the experiment with C. neoformans ATCC 66031 it was 46 µg/mL (≈ 103 µM); with C. albicans ATCC 14053 [1] (setting [4]) it was 365 µg/mL (≈ 821 µM); against C. albicans ATCC 14053 [2] (setting [5]), > 731 µg/mL.

As to `O=C(OC(Cn1cncn1)(Cn1cncn1)c1ccc(F)cc1F)c1ccccc1O` [Compound 1l, O-Salicylfluconazole], the “MIC A. niger ATCC 16404, SDB” value against A. niger ATCC 16404 was >1,212 μg/mL. The “MIC C. neoformans ATCC 66031, SDB” value against C. neoformans ATCC 66031 is >1,212 μg/mL. For the same compound, the “MIC C. albicans ATCC 14053, RPMI” value with C. albicans ATCC 14053 [1] (setting [3]) is “≧1,212 μg/mL”. Moreover, the “MIC C. albicans ATCC 14053, SDB” value in the experiment on C. albicans ATCC 14053 [2] (SDB medium pH 5.6, 35-37° C.) is >1,212 μg/mL.

Turning to `CCCCCCCCCCCCC(Br)C(=O)OC(Cn1cncn1)(Cn1cncn1)c1ccc(F)cc1F` (centres unmarked) [Compound 1i, O-2-Bromomyristoylfluconazole], the “MIC A. niger ATCC 16404, SDB” value with A. niger ATCC 16404 is >731 µg/mL. The “MIC C. neoformans ATCC 66031, SDB” value with C. neoformans ATCC 66031 amounted to 731 µg/mL (≈ 1230 µM). The “MIC C. albicans ATCC 14053, RPMI” value against C. albicans ATCC 14053 [1] (setting [3]) was 731 µg/mL (≈ 1230 µM). Moreover, the “MIC C. albicans ATCC 14053, SDB” value against C. albicans ATCC 14053 [2] (SDB medium pH 5.6, 35-37° C.) came to 731 µg/mL (≈ 1230 µM).

`CCCCCCCCCCCCCC(=O)O` [Tetradecanoic acid, reference compound]: the MIC with A. niger ATCC 16404 is > 529 µg/mL; in the experiment with C. neoformans ATCC 66031 it was > 529 µg/mL; with C. albicans ATCC 14053 [1] (setting [4]), > 876 µg/mL; against C. albicans ATCC 14053 [2] (setting [5]), 1750 µg/mL (≈ 7660 µM). Besides, the “MIC C. neoformans ATCC 66031, SDB” value with C. neoformans ATCC 66031 was >529 µg/mL.

For `CCCCCCCCCC(=O)O` [Decanoic acid, reference compound], the values for the MIC in the experiment on A. niger ATCC 16404, in the experiment on C. albicans ATCC 14053 [1] (setting [4]) and with C. albicans ATCC 14053 [2] (setting [5]) were < 12 µg/mL, 791 µg/mL (≈ 4590 µM) and 99 µg/mL (≈ 575 µM), respectively.

Consider `CCCCCCCCCCCCC(Br)C(=O)O` (centres unmarked) [2-Bromomyristic acid, reference compound], for which the MIC with A. niger ATCC 16404 is 68 µg/mL (≈ 221 µM); in the experiment on C. neoformans ATCC 66031, 15 µg/mL (≈ 48.8 µM); with C. albicans ATCC 14053 [1] (setting [4]), 12 µg/mL (≈ 39.1 µM); in the experiment with C. albicans ATCC 14053 [2] (setting [5]), > 540 µg/mL.

Turning to `C[C@@H]1[C@H](O)[C@@H](C)/C=C/C=C/C=C/C=C/C=C/C=C/C=C/[C@H](O[C@@H]2O[C@H](C)[C@@H](O)[C@H](N)[C@@H]2O)C[C@@H]2O[C@](O)(C[C@@H](O)C[C@@H](O)[C@H](O)CC[C@@H](O)C[C@@H](O)CC(=O)O[C@H]1C)C[C@H](O)[C@H]2C(=O)O` [AMB, amphotericin B, reference compound], the “MIC A. niger ATCC 16404, SDB” value against A. niger ATCC 16404 is 0.4 µg/mL (≈ 0.433 µM). The “MIC C. albicans ATCC 14053, RPMI” value against C. albicans ATCC 14053 [1] (setting [3]) was 0.7 µg/mL (≈ 0.758 µM). The “MIC C. albicans ATCC 14053, SDB” value against C. albicans ATCC 14053 [2] (SDB medium pH 5.6, 35-37° C.) was 1.5 µg/mL (≈ 1.62 µM).

In the case of `O=C(OCCCl)OC(Cn1cncn1)(Cn1cncn1)c1ccc(F)cc1F` [Compound 1k, O-2-Chloroethyloxycarbonylfluconazole], the “MIC A. niger ATCC 16404, SDB” value in the experiment on A. niger ATCC 16404 was >977 µg/mL. The “MIC C. neoformans ATCC 66031, SDB” value against C. neoformans ATCC 66031 is >977 µg/mL. Further, the “MIC C. albicans ATCC 14053, RPMI” value with C. albicans ATCC 14053 [1] (setting [3]) came to 977 µg/mL (≈ 2370 µM). Further, in the experiment with C. albicans ATCC 14053 [2] (SDB medium pH 5.6, 35-37° C.), the “MIC C. albicans ATCC 14053, SDB” value is >977 µg/mL.

In the case of `CC(Br)C(=O)Cl` (centres unmarked) [2-Bromopropionyl chloride, reference compound], the MIC against A. niger ATCC 16404 stood at 468 µg/mL; in the experiment with C. neoformans ATCC 66031, 117 µg/mL; with C. albicans ATCC 14053 [1] (setting [4]) it was 468 µg/mL; in the experiment with C. albicans ATCC 14053 [2] (setting [5]), 468 µg/mL.

As for `CCCCCCCCCCC(Br)C(=O)O` (centres unmarked) [2-Bromolauric acid, reference compound], the MIC worked out at 78 µg/mL (≈ 279 µM) in the experiment on A. niger ATCC 16404, 19 µg/mL (≈ 68 µM) with C. neoformans ATCC 66031, 155 µg/mL (≈ 555 µM) in the experiment on C. albicans ATCC 14053 [1] (setting [4]) and 155 µg/mL (≈ 555 µM) against C. albicans ATCC 14053 [2] (setting [5]).

Take `CCC(Br)C(=O)O` (centres unmarked) [2-Bromobutyric acid, reference compound]: the MIC against C. neoformans ATCC 66031 was > 513 µg/mL; in the experiment with C. albicans ATCC 14053 [1] (ATCC14053, pH 6.9, read-out: MIC C. albicans ATCC 14053, RPMI) it was 513 µg/mL (≈ 3070 µM); against C. albicans ATCC 14053 [2] (ATCC14053, SDB medium pH 5.6, 35-37° C.) it was > 513 µg/mL.

Turning to `C=CCCCCCCCCCO` [ω-Undecylenyl alcohol, reference compound], in the experiment with A. niger ATCC 16404, the “MIC A. niger ATCC 16404, SDB” value came out at 27 µg/mL (≈ 159 µM). Further, the “MIC C. neoformans ATCC 66031, SDB” value in the experiment with C. neoformans ATCC 66031 was determined as 14 µg/mL (≈ 82.2 µM). Further, the “MIC C. albicans ATCC 14053, SDB” value against C. albicans ATCC 14053 [2] (SDB medium pH 5.6, 35-37° C.) came out at 110 µg/mL (≈ 646 µM).
